The values below come from paper PMC11019550, “Potent Inhibition of E. coli DXP Synthase by a gem-Diaryl Bisubstrate Analog” (ACS Infectious Diseases, 2024).

The target in test [1] is T1, WT EcDXPS (Escherichia coli, UniProt P77488).
T1 construct: made in house
The experiment in a line: Circular dichroism titration (PLThDP formation, apparent KD) on WT EcDXPS. The format is binding. The text has this:
The X-ray structure obtained from cocrystallization of DrDXPS with 1 (Figure 2) indicates the formation of the PLThDP adduct by reaction of the acetylphosphonate mimic of pyruvate with the C2 carbanion of ThDP. We reasoned that 8 should also engage the pyruvate binding site and react with ThDP to form a PLThDP adduct. Circular dichroism (CD) is a powerful tool that can be used to detect LThDP and LThDP-like adducts on thiamin-dependent enzymes,[56],[67]−[75] including DXPS.[31],[36],[43],[44],[49]−[52],[76] DXPS bound to ThDP (E-ThDP) is characterized by a CD λmin at 320 nm, indicative of the 4′-aminopyrimidine (AP) tautomer of ThDP (Figure 8A). Upon addition of pyruvate to E-ThDP, a new positive signal emerges at 313 nm, indicating the formation of LThDP in its 1′,4′-iminopyrimidine (IP) form. Similarly, upon addition of AP-based inhibitors to E-ThDP, the E-PLThDP adduct is formed, characterized by an increasing, broad CD signal.[69],[77],[78] Determination of apparent KD of PLThDP by plotting the CD signal corresponding to PLThDP versus [MAP] has been used as a proxy for PLThDP affinity.[77],[78] To confirm that 8 reacts with ThDP to form PLThDP in the DXPS active site, the change in CD signal upon addition of 8 (0.25–30 μM) to EcDXPS (30 μM) was measured. […] Plotting the CD signal at 294 nm versus affords a curve that approaches the limiting asymptotes defined by infinitely tight binding (Figure 8C),[79],[80] which is expected for this nanomolar inhibitor under the conditions of high [DXPS] required for this method. Since in this case [DXPS] ≫ KD^app, an accurate determination of KD^app is not possible, and data were fit to a quadratic equation to give an estimated upper limit for the value of KD^app (≤0.04 ± 0.01 μM). Addition of 10 to DXPS also results in an increased, broad CD signal (Figure S7A), indicating PLThDP formation. […]
CD titrations of 8 and 10 onto WT, R99A, and R478A EcDXPS variants were conducted at 25 °C under aerobic conditions in 1.5 mL solutions containing 30 μM EcDXPS in 50 mM HEPES pH 8, 100 mM NaCl, 1 mM MgCl2, and 0.2 mM ThDP. […] The CD signals at 294 nm determined from the difference spectra obtained by subtracting the signal of E-ThDP at 294 nm were plotted as a function of [inhibitor] and fit to (1) the quadratic equation described in eq 2 (8 on WT DXPS), where E is the concentration of DXPS taking into account stoichiometric binding and CDmax is the maximal CD signal, or (2) a one-site specific binding curve (all other experiments) using GraphPad Prism Version 9 to calculate an apparent KD. Experiments were conducted in triplicate and the standard error was calculated. […]
At the conclusion of the titration described above, the CD signal at 313 nm (previously characterized for LThDP) was recorded. […]
(Circular dichroism is the unequal absorption of left and right circularly polarised light.)

The target in another test is T2, R99A EcDXPS (Escherichia coli, UniProt P77488, R99A).
T2 construct: made in house
The experiment in a line: IC50 determination for 8 on R99A EcDXPS variant. Format: biochemical. Particulars: 400 nM DXPS, 2 × Km pyruvate, 10 × Km D-GAP. How it is done:
(§1) EcDXPS and IspC were preincubated with inhibitor for 10 min at 25 °C in assay reaction buffer (100 mM HEPES pH 8, 2 mM MgCl2, 5 mM NaCl, 1 mM ThDP, and 200 μM NADPH). Enzyme concentrations for variants were as follows: 200 nM DXPS (wildtype EcDXPS) and 4 μM IspC; 400 nM DXPS (R99A and R478A EcDXPS) and 6 μM IspC. The reaction was initiated by the addition of substrates at final concentrations of 2 × Km pyruvate and 10 × KmD-GAP. NADPH consumption was monitored at 340 nm for 10 min at 25 °C. The initial rate of NADPH consumption was used to determine the initial rate of DXP formation catalyzed by DXPS. Experiments were performed in triplicate and error bars represented standard error.

The target in test [2] is T1, WT EcDXPS. The experiment in a line: Time-dependent inhibition, reaction progress curves on WT EcDXPS. The format is biochemical. To be noted: 8 at 400 or 800 nM, 10 at 1 or 100 μM. On the procedure:
To determine if 8 is also a slow-onset inhibitor of DXPS, reaction progress was monitored upon simultaneous addition of substrates (pyruvate and D-GAP) in the presence or absence of inhibitor. In the absence of inhibitor, the reaction progress curve is linear. […] To assess the importance of the carboxyl group of 8, we evaluated descarboxy analog 10 in the same manner.
EcDXPS (100 nM) and IspC (2 μM) were preincubated in enzyme reaction buffer (100 mM HEPES pH 8, 2 mM MgCl2, 5 mM NaCl, 1 mM ThDP, and 200 μM NADPH) with 250 μM D-GAP for 10 min at 25 °C. The reaction was initiated by the addition of pyruvate (1 mM) and inhibitor (400 nM and 800 nM 8; 1 μM and 100 μM 10). The reaction mixture was incubated at 25 °C, and the absorbance of NADPH at 340 nm was monitored. The change in the absorbance of NADPH over time was used to calculate [DXP] (μM) produced over time. Experiments were performed in triplicate.

A further test addresses T3, wildtype EcDXPS (Escherichia coli, UniProt P77488).
T3 construct: made in house
The experiment in a line: IC50 determination for 8 on wildtype EcDXPS (DXPS-IspC coupled assay). The format is biochemical. How it is done:
as §1

The next test has as its target T4, R478A EcDXPS (Escherichia coli, UniProt P77488, R478A).
T4 construct: made in house
The experiment in a line: IC50 determination for 8 on R478A EcDXPS variant. Format: biochemical. Particulars: 400 nM DXPS, 2 × Km pyruvate, 10 × Km D-GAP. How it is done: as §1

A word on the IC50: it is the concentration at which inhibition is half-maximal. Read a low IC50 as higher potency. Consider `CC(=O)P(=O)(O)OCCc1cn(C(Cc2ccccc2)(Cc2ccccc2)C(=O)O)nn1` [Compound 8], for which the Kd on WT EcDXPS [1] was ≤ 40 nM. The “change in PLThDP CD signal upon addition of 1 mM pyruvate” value at WT EcDXPS [1] (WT EcDXPS 30 μM, inhibitor 30 μM) was “negligible shift in the CD signal”. In addition, the values for the IC50 against R99A EcDXPS, on wildtype EcDXPS and against R478A EcDXPS were 3007 ± 15 nM, ≤ 72 nM and 1010 ± 381 nM, respectively. Moreover, at WT EcDXPS [2], the “time dependence of inhibition (progress curve for DXP formation)” value is reported as “time dependence of inhibition”. In addition, on wildtype EcDXPS (2 × Km pyruvate), the “concentration required for 21% inhibition of DXPS” value is “less than 15.6 nM”.
